According to patent US8420653B2, “Pyrimidine compounds and their uses” (Orchid Chemicals & Pharmaceuticals Limited, priority 2008, dated 2013):
Blank lines part the entries; values can stand above or below the molecule they belong to.

Experiments:
PDE4 = tested on: T1, PDE4; test: PDE4 activity (source human U937 cells); format: biochemical; conditions: 10 μM, source human U937 cells
T1 construct: other: 10 μM, source human U937 cells; PDE4 at 10 μm
Experimental: PDE4 inhibition was measured by following a literature assay procedure (Cortizo J et al., Br J. Pharmacol., 1993, 108: 562-568. The assay method involves the following conditions.
Substrate: 1.01 μM [^3H] camp+camp
Pre-Incubation Time/Temperature: 15 minutes at 25° C.
Incubation Time/Temperature. 20 minutes at 25° C.
Incubation buffer: 50 mM Tris-HCl, pH 7.5, 5 mM MgCl2
Quantitation method: Quantitation of [^3H] Adenosine
Significance criteria: ≧50% of max stimulation or inhibition

[1] = tested on: purified recombinant COX-1; test: COX-1 enzyme based assay; format: biochemical
Experimental: COX-1 and COX-2 enzyme based assays were carried out to check the inhibitory potential of the test compounds on the production of prostaglandin by purified recombinant COX-1/COX-2 enzyme (Proc. Nat. Acad. Sci. USA, 88, 2692-2696, 1991; J. Clin. Immunoassay 15, 116-120, 1992). In this assay, the potential of the test compound to inhibit the production of prostaglandin either by COX-1 or COX-2 from arachidonic acid (substrate) was measured. This was an enzyme based in-vitro assay to evaluate selective COX inhibition with good reproducibility.
Arachidonic acid was converted to PGH2 (Intermediate product) by COX1/COX-2 in the presence or absence of the test compound. The reaction was carried out at 37° C. and after 2 minutes it was stopped by adding 1M HCl. Intermediate product PGH2 was converted to a stable prostanoid product PGF2α by SnCl2 reduction. The amount of PGF2α produced in the reaction was inversely proportional to the COX inhibitory potential of the test compound. The prostanoid product was quantified via enzyme immunoassay (EIA) using a broadly specific antibody that binds to all the major forms of prostaglandin, using Cayman ELISA kit as per the procedure outlined by the manufacturer (Cayman Chemicals, Ann Arbor, USA).

ulcer formation = test: Ulcerogenic potential; format: in vivo, male wistar; conditions: oral, 4 hours after administration
Experimental: Ulcerogenic Potential In order to evaluate the compound's role on the ulcer formation, the animals were sacrificed and the stomach was taken out and flushed with 1% formalin. Animals (male wistar 200 g) were fasted for 18 hours with free access to water and the test compounds were suspended in 0.5% Tween 80 and 0.25% CMC (carboxymethylcellulose) solution to make a uniform suspension. After 4 hours of oral administration of test compounds, all the animals were sacrificed by cervical dislocation. The stomach was dissected carefully and filled up with a sterile saline solution and embedded in 6% formalin solution. […] The test compound treated groups were compared with the vehicle treated groups. […]

Compound: NS(=O)(=O)c1cccc(-c2c(-c3ccc(F)cc3)nc(C(F)(F)F)nc2N2CCN(C(=O)C(F)(F)F)CC2)c1 [Example 109, 3-{6-(4-Fluorophenyl)-4-[4-(trifluoroacetyl)piperazin-1-yl]-2-(trifluoromethyl)pyrimidin-5-yl}benzenesulfonamide]
PDE4 inhibition at 10 μM (%) (PDE4): 90%

Compound: NS(=O)(=O)c1cccc(-c2c(-c3ccccc3)nc(C(F)(F)F)nc2N2CCN(C(=O)C(F)(F)F)CC2)c1 [Example 173, 3-{6-Phenyl-4-[4-(trifluoroacetyl)piperazin-1-yl]-2-(trifluoromethyl)pyrimidin-5-yl}benzenesulfonamide]
PDE4 inhibition at 10 μM (%) (PDE4): 87%

Compound: CS(=O)(=O)c1ccc(-c2nc(C(F)(F)F)nc(NN)c2-c2ccc(S(=O)(=O)NN)cc2)cc1 [Example 7, 4-{4-hydrazino-6-[4-(methylsulfonyl)phenyl]-2-(trifluoromethyl)pyrimidin-5-yl}benzenesulfonohydrazide]
melting point: 203 to 206 °C

Compound: CC(=O)NS(=O)(=O)c1ccc(-c2c(Cl)nc(C(F)(F)F)nc2-c2ccc(S(C)(=O)=O)cc2)cc1 [Example 17, N-[(4-{4-chloro-6-[4-(methylsulfonyl)phenyl]-2-(trifluoromethyl)pyrimidin-5-yl}phenyl)sulfonyl]acetamide]
melting point: 230 to 235 °C

Compound: N#CCCN1CCN(c2nc(C(F)(F)F)nc(-c3ccc(F)cc3)c2-c2cccc(S(N)(=O)=O)c2)CC1 [Example 100, 3-{4-[4-(2-cyanoethyl)piperazin-1-yl]-6-(4-fluorophenyl)-2-(trifluoromethyl)pyrimidin-5-yl}benzenesulfonamide]
PDE4 inhibition at 10 μM (%) (PDE4): 92%

Compound: NS(=O)(=O)c1cccc(-c2nc(C(F)(F)F)nc(-n3ccnc3)c2-c2ccccc2)c1 [Example 167, 3-[4-(1H-imidazol-1-yl)-5-phenyl-2-(trifluoromethyl)pyrimidin-6-yl]benzenesulfonamide]
PDE4 inhibition at 10 μM (%) (PDE4): 82%

Compound: O=C(NNc1nc(C(F)(F)F)nc(-c2ccncc2)c1-c1ccc(F)cc1)C(F)(F)F [Example 14, 2,2,2-trifluoro-N′-[5-(4-fluorophenyl)-6-pyridin-4-yl-2-(trifluoromethyl)pyrimidin-4-yl]acetohydrazide]
melting point: 240 to 242 °C

Compound: NS(=O)(=O)c1cccc(-c2c(-c3ccc(F)cc3)nc(C(F)(F)F)nc2N2CCN(S(=O)(=O)C(F)(F)F)CC2)c1 [Example 77, 5-(3-Aminosulfonylphenyl)-4-(4-fluorophenyl)-2-(trifluoromethyl)-6-{4-[(trifluoromethyl)sulfonyl]piperazin-1-yl}pyrimidine]
PDE4 inhibition at 10 μM (%) (PDE4): 94%

Compound: NS(=O)(=O)c1cccc(-c2c(-c3ccccc3)nc(C(F)(F)F)nc2N2CCC(=O)CC2)c1 [Example 179, 3-[6-Phenyl-4-(4-oxopiperidin-1-yl)-2-(trifluoromethyl)pyrimidin-5-yl]benzenesulfonamide]
PDE4 inhibition at 10 μM (%) (PDE4): 84%

Compound: Fc1ccc(-c2nc(C(F)(F)F)nc(NC3CC3)c2-c2ccccc2)cc1 [Example 175, N-Cyclopropyl-6-(4-fluorophenyl)-5-phenyl-2-(trifluoromethyl)pyrimidin-4-amine]
PDE4 inhibition at 10 μM (%) (PDE4): 88%

Compound: CNc1nc(C(F)(F)F)nc(-c2ccc(S(C)(=O)=O)cc2)c1-c1ccc(S(=O)(=O)NC)cc1 [Example 5, 4-{4-(Methylamino)-6-[4-(methylsulfonyl)phenyl]-2-(trifluoromethyl)pyrimidin-5-yl}-N-methylbenzenesulfonamide]
Ulcer incidence at 5 mg/kg (ulcer formation): Nil

Second part, led by results:

melting point: 228 to 232 °C
Compound: CS(=O)(=O)c1ccc(-c2nc(C(F)(F)F)nc(N3CCN(Cc4ccncc4)CC3)c2-c2ccccc2)cc1 [Example 46, 4-[4-(Methylsulfonyl)phenyl]-5-phenyl-6-[4-(pyridin-4-ylmethyl)piperazin-1-yl]-2-(trifluoromethyl)pyrimidine]

% Inhibition in rEnzyme Assay COX-1 ([1]; 1 μM): 10.22%
% Inhibition in rEnzyme Assay COX-1 ([1]; 10 μM): 9.59%
Compound: NS(=O)(=O)c1cccc(-c2c(-c3ccccc3)nc(C(F)(F)F)nc2N2CCN(c3ccccn3)CC2)c1 [Example 58]

melting point: 168 to 174 °C
Compound: CS(=O)(=O)c1ccc(-c2nc(C(F)(F)F)nc(N3CCN(Cc4ccc([N+](=O)[O-])s4)CC3)c2-c2ccccc2)cc1 [Example 47, 6-[4-(Methylsulfonyl)phenyl]-4-{4-[(5-nitro-2-thienyl)methyl]piperazin-1-yl}-5-phenyl-2-(trifluoromethyl)pyrimidine]

% Inhibition in rEnzyme Assay COX-1 ([1]; 1 μM): 8.27%
% Inhibition in rEnzyme Assay COX-1 ([1]; 10 μM): 7.1%
Compound: NS(=O)(=O)c1cccc(-c2c(-c3ccccc3)nc(C(F)(F)F)nc2N2CCNCC2)c1 [Example 51, 3-[4-Phenyl-6-piperazin-1-yl-2-(trifluoromethyl)pyrimidin-5-yl]benzenesulfonamide]

melting point: 226 to 230 °C
Compound: CNS(=O)(=O)c1ccc(-c2c(Cl)nc(C(F)(F)F)nc2-c2ccc(S(C)(=O)=O)cc2)cc1 [Example 4, 4-{4-chloro-6-[4-(methylsulfonyl)phenyl]-2-(trifluoromethyl)pyrimidin-5-yl}-N-methylbenzenesulfonamide]
Ulcer incidence at 5 mg/kg (ulcer formation): Nil

% Inhibition in rEnzyme Assay COX-1 ([1]; 1 μM): 34.42%
% Inhibition in rEnzyme Assay COX-1 ([1]; 10 μM): 45.53%
Compound: NS(=O)(=O)c1cccc(-c2c(-c3ccc(F)cc3)nc(C(F)(F)F)nc2N2CCN(c3ncccn3)CC2)c1 [Example 54, 3-[4-(4-Fluorophenyl)-6-(4-pyrimidin-2-ylpiperazin-1-yl)-2-(trifluoromethyl)pyrimidin-5-yl]benzenesulfonamide]

melting point: 165 to 167 °C
Compound: FC(F)(F)c1nc(-c2ccccc2)c(-c2ccccc2)c(N2CCN(c3ccccn3)CC2)n1 [Example 48, 4,5-diphenyl-6-(4-pyridin-2-yl-piperazin-1-yl)-2-(trifluoromethyl)pyrimidine]

melting point: 204 to 206 °C
Compound: CS(=O)(=O)c1ccc(-c2nc(C(F)(F)F)nc(OS(=O)(=O)c3cccc4ccccc34)c2-c2ccccc2)cc1 [Example 18, 6-[4-(methylsulfonyl)phenyl]-5-phenyl-2-(trifluoromethyl)pyrimidin-4-yl napthalenesulfonate]

% Inhibition in rEnzyme Assay COX-1 ([1]; 1 μM): 6.29%
% Inhibition in rEnzyme Assay COX-1 ([1]; 10 μM): 19.24%
Compound: NS(=O)(=O)c1cccc(-c2c(-c3ccccc3)nc(C(F)(F)F)nc2N2CCN(c3ccc(C(F)(F)F)cn3)CC2)c1 [Example 116, 3-[6-{4-[5-(trifluoromethyl)pyridin-2-yl]piperazin-1-yl}-4-phenyl-2-(trifluoromethyl)pyrimidin-4-yl]benzenesulfonamide]

% Inhibition in rEnzyme Assay COX-1 ([1]; 10 μM): 5.7%
Compound: NS(=O)(=O)c1cccc(-c2c(-c3ccccc3)nc(C(F)(F)F)nc2N2CCN(c3ncccn3)CC2)c1 [Example 57]

melting point: 207 to 210 °C
Compound: CS(=O)(=O)c1ccc(-c2nc(C(F)(F)F)nc(Cl)c2-c2ccc(S(=O)(=O)Cl)cc2)cc1 [Example 3, 4-{4-chloro-6-[4-(methylsulfonyl)phenyl]-2-(trifluoromethyl)pyrimidin-5-yl}benzenesulfonyl chloride]

% Inhibition in rEnzyme Assay COX-1 ([1]; 1 μM): 46.29%
% Inhibition in rEnzyme Assay COX-1 ([1]; 10 μM): 56.85%
Compound: NS(=O)(=O)c1cccc(-c2c(-c3ccc(F)cc3)nc(C(F)(F)F)nc2N2CCN(c3ccccn3)CC2)c1 [Example 53, 3-[4-(4-Fluorophenyl)-6-(4-pyridin-2-ylpiperazin-1-yl)-2-(trifluoromethyl)pyrimidin-5-yl]benzenesulfonamide]

% Inhibition in rEnzyme Assay COX-1 ([1]; 1 μM): 33.84%
% Inhibition in rEnzyme Assay COX-1 ([1]; 10 μM): 50.41%
Compound: CNS(=O)(=O)c1ccc(-c2c(N)nc(C(F)(F)F)nc2-c2ccc(S(C)(=O)=O)cc2)cc1 [Example 2, 4-{4-Amino-6-[4-(methylsulfonyl)phenyl]-2-(trifluoromethyl)pyrimidin-5-yl}-N-methylbenzenesulfonamide]

melting point: 229 to 233 °C
Compound: CS(=O)(=O)c1ccc(-c2nc(C(F)(F)F)nc(N3CCN(c4ccccn4)CC3)c2-c2ccccc2)cc1 [Example 49, 4-[4-(Methylsulfonyl)phenyl]-5-phenyl-6-(4-pyridin-2-yl-piperazin-1-yl)-2-(trifluoromethyl)pyrimidine]
